Test results from patent US11713335B2, “Aminocoumarin compounds and methods of their use” (President and Fellows of Harvard College, priority 2018, dated 2023).
Converted amounts (≈) assume the structure as drawn. Read-outs that look alike come from different tables or passages of the source.

Key:
E. cloacae 13047 = test: Minimal inhibitory concentration, E. cloacae 13047; type: cell-based; conditions: 16 hour minimal inhibitory concentration at 37° C., read-out: MIC (μM) E. cloacae 13047
How it was run: (§1)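 Growth at 600 nm after 16 h at 37 °C without shaking defines the MIC, taken as the lowest compound concentration that prevents growth and expressed in µM. Cultures grown to saturation in LB, or TSA for S. aureus, were diluted 1:100 twice before twofold serial compound dilution.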

S. aureus MW2 = test: Minimal inhibitory concentration, S. aureus MW2; type: cell-based; conditions: 16 hour minimal inhibitory concentration at 37° C., read-out: MIC (μM) S. aureus MW2 (MRSA)
How it was run: as §1

E. coli MC4100 = test: Minimal inhibitory concentration, E. coli MC4100; type: cell-based; conditions: 16 hour minimal inhibitory concentration at 37° C., read-out: MIC (μM) E. coli MC4100 ara+
How it was run: as §1

K. pneumoniae 700721 = test: Minimal inhibitory concentration, K. pneumoniae 700721; type: cell-based; conditions: 16 hour minimal inhibitory concentration at 37° C., read-out: MIC (μM) K. pneumoniae 700721
How it was run: as §1

E. coli 25922 = test: Minimal inhibitory concentration, E. coli 25922; type: cell-based; conditions: 16 hour minimal inhibitory concentration at 37° C., read-out: MIC (μM) E. coli 25922
How it was run: as §1

WT E. coli = test: Minimal inhibitory concentration in wild-type E. coli; type: cell-based, Escherichia coli; conditions: wild-type E. coli, 37° C., 16 hours, read-out: MIC (μM) in WT E. coli
How it was run: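 Broth microdilution: saturated LB overnight culture diluted 1:100 twice, compound serially two-fold diluted across the plate from DMSO stock. Static incubation 16 hours at 37° C, OD600 read; MIC taken as lowest concentration inhibiting growth.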

S. aureus RN4220 = test: Minimal inhibitory concentration, S. aureus RN4220; type: cell-based; conditions: 16 hour minimal inhibitory concentration at 37° C., read-out: MIC (μM) S. aureus RN4220
How it was run: as §1

A. baumannii 19606 = test: Minimal inhibitory concentration, A. baumannii 19606; type: cell-based; conditions: 16 hour minimal inhibitory concentration at 37° C., read-out: MIC (μM) A. baumannii 19606
How it was run: as §1

[1] = Staphylococcus aureus, MRSA, 16 h
[2] = Staphylococcus aureus, RN4220, 16 h
[3] = Acinetobacter baumannii, 19606, 16 h

Compound | MIC (E. cloacae 13047; Enterobacter cloacae, 13047) [µM] | MIC (S. aureus MW2; [1]) [µM] | MIC (E. coli MC4100; Escherichia coli, MC4100, 16 h) [µM] | MIC (K. pneumoniae 700721; Klebsiella pneumoniae, 700721) [µM] | MIC (E. coli 25922; Escherichia coli, 25922, 16 h) [µM] | MIC (WT E. coli; Escherichia coli) [µM] | MIC (S. aureus RN4220; [2]) [µM] | MIC (A. baumannii 19606; [3]) [µM] | MIC (E. cloacae 13047) [µM] | MIC (S. aureus MW2) [µM] | MIC (E. coli MC4100) [µM] | MIC (K. pneumoniae 700721) [µM] | MIC (E. coli 25922) [µM] | MIC (WT E. coli) [µM] | MIC (S. aureus RN4220) [µM] | MIC (A. baumannii 19606) [µM]
COc1ccc(-c2cccc(C(=O)Nc3c(O)c4ccc(O[C@@H]5OC(C)(C)[C@H](OC)[C@@H](OC(N)=O)[C@H]5O)c(C)c4oc3=O)c2)cc1 [Compound 46] | > 100 | 3 (≈ 1.9 µg/mL) | > 200 | > 100 | > 200 | > 300 | 5 (≈ 3.17 µg/mL) | > 50 | – | – | – | – | – | – | – | –
CO[C@@H]1[C@@H](OC(N)=O)[C@@H](O)[C@H](Oc2ccc3c(O)c(NC(=O)c4cccc(-c5ccccc5C)c4)c(=O)oc3c2C)OC1(C)C [Compound 47] | > 100 | 10 (≈ 6.19 µg/mL) | 26 (≈ 16.1 µg/mL) | > 100 | 40 (≈ 24.7 µg/mL) | 26 (≈ 16.1 µg/mL) | 20 (≈ 12.4 µg/mL) | > 50 | – | – | – | – | – | – | – | –
CO[C@@H]1[C@@H](OC(N)=O)[C@@H](O)[C@H](Oc2ccc3c(O)c(NC(=O)c4cccc(-c5ccc(C(C)C)cc5)c4)c(=O)oc3c2C)OC1(C)C [Compound 48] | > 100 | 0.48 (≈ 0.31 µg/mL) | 89 (≈ 57.6 µg/mL) | 77 (≈ 49.8 µg/mL) | 77 (≈ 49.8 µg/mL) | 89 (≈ 57.6 µg/mL) | 0.77 (≈ 0.498 µg/mL) | 19 (≈ 12.3 µg/mL) | – | – | – | – | – | – | – | –
CO[C@@H]1[C@@H](OC(N)=O)[C@@H](O)[C@H](Oc2ccc3c(O)c(NC(=O)c4cccc(-c5ccccc5C(C)C)c4)c(=O)oc3c2C)OC1(C)C [Compound 49] | – | – | – | – | – | – | – | – | >100 | 5 (≈ 3.23 µg/mL) | >200 | >100 | >200 | >300 | 10 (≈ 6.47 µg/mL) | >50
COc1ccccc1-c1cccc(C(=O)Nc2c(O)c3ccc(O[C@@H]4OC(C)(C)[C@H](OC)[C@@H](OC(N)=O)[C@H]4O)c(C)c3oc2=O)c1 [Compound 50] | – | – | – | – | – | – | – | – | >100 | 10 (≈ 6.35 µg/mL) | 40 (≈ 25.4 µg/mL) | >100 | 39 (≈ 24.8 µg/mL) | 40 (≈ 25.4 µg/mL) | 19 (≈ 12.1 µg/mL) | >50
CO[C@@H]1[C@@H](OC(N)=O)[C@@H](O)[C@H](Oc2ccc3c(O)c(NC(=O)c4cccc(-c5cccc(C)c5)c4)c(=O)oc3c2C)OC1(C)C [Compound 51] | > 100 | 1 (≈ 0.619 µg/mL) | 26 (≈ 16.1 µg/mL) | > 100 | 81 (≈ 50.1 µg/mL) | 26 (≈ 16.1 µg/mL) | 1.62 (≈ 1 µg/mL) | 40 (≈ 24.7 µg/mL) | – | – | – | – | – | – | – | –
CO[C@@H]1[C@@H](OC(N)=O)[C@@H](O)[C@H](Oc2ccc3c(O)c(NC(=O)c4cccc(N5CCN(C)CC5)c4)c(=O)oc3c2C)OC1(C)C [Compound 52] | > 100 | > 100 | > 200 | > 100 | 160 (≈ 100 µg/mL) | > 300 | > 100 | > 50 | – | – | – | – | – | – | – | –
CO[C@@H]1[C@@H](OC(N)=O)[C@@H](O)[C@H](Oc2ccc3c(O)c(NC(=O)c4cccc(C5CCC5)c4)c(=O)oc3c2C)OC1(C)C [Compound 53] | – | – | – | – | – | – | – | – | >100 | 11 (≈ 6.41 µg/mL) | >200 | >100 | >200 | >300 | 11 (≈ 6.41 µg/mL) | >50
CCc1ccc(-c2cccc(C(=O)Nc3c(O)c4ccc(O[C@@H]5OC(C)(C)[C@H](OC)[C@@H](OC(N)=O)[C@H]5O)c(C)c4oc3=O)c2)cc1 [Compound 54] | – | – | – | – | – | – | – | – | >100 | 0.99 (≈ 0.626 µg/mL) | 40 (≈ 25.3 µg/mL) | 79 (≈ 50 µg/mL) | 79 (≈ 50 µg/mL) | 40 (≈ 25.3 µg/mL) | 0.99 (≈ 0.626 µg/mL) | 20 (≈ 12.7 µg/mL)
CO[C@@H]1[C@@H](OC(N)=O)[C@@H](O)[C@H](Oc2ccc3c(O)c(NC(=O)c4cccc(-c5ccc(C(F)(F)F)cc5)c4)c(=O)oc3c2C)OC1(C)C [Compound 55] | – | – | – | – | – | – | – | – | >100 | 0.93 (≈ 0.626 µg/mL) | >200 | >100 | >200 | >300 | 1.49 (≈ 1 µg/mL) | 37 (≈ 24.9 µg/mL)
CO[C@@H]1[C@@H](OC(N)=O)[C@@H](O)[C@H](Oc2ccc3c(O)c(NC(=O)c4cccc(-c5cccc(C(F)(F)F)c5)c4)c(=O)oc3c2C)OC1(C)C [Compound 56] | – | – | – | – | – | – | – | – | >100 | 0.46 (≈ 0.309 µg/mL) | >200 | >100 | >200 | >300 | 0.74 (≈ 0.498 µg/mL) | 37 (≈ 24.9 µg/mL)
CO[C@@H]1[C@@H](OC(N)=O)[C@@H](O)[C@H](Oc2ccc3c(O)c(NC(=O)c4cccc(-c5ccc(OC(F)(F)F)cc5)c4)c(=O)oc3c2C)OC1(C)C [Compound 57] | – | – | – | – | – | – | – | – | >100 | 0.91 (≈ 0.627 µg/mL) | >200 | >100 | >200 | >300 | 1.45 (≈ 0.998 µg/mL) | 18 (≈ 12.4 µg/mL)
CO[C@@H]1[C@@H](OC(N)=O)[C@@H](O)[C@H](Oc2ccc3c(O)c(NC(=O)c4cccc(-c5cccc(OC(F)(F)F)c5)c4)c(=O)oc3c2C)OC1(C)C [Compound 58] | – | – | – | – | – | – | – | – | >100 | 0.18 (≈ 0.124 µg/mL) | 89 (≈ 61.3 µg/mL) | >100 | >200 | 89 (≈ 61.3 µg/mL) | 0.36 (≈ 0.248 µg/mL) | 18 (≈ 12.4 µg/mL)
CO[C@@H]1[C@@H](OC(N)=O)[C@@H](O)[C@H](Oc2ccc3c(O)c(NC(=O)c4cccc(-c5ccccc5OC(F)(F)F)c4)c(=O)oc3c2C)OC1(C)C [Compound 59] | – | – | – | – | – | – | – | – | >100 | 5 (≈ 3.44 µg/mL) | 40 (≈ 27.5 µg/mL) | >100 | >200 | 40 (≈ 27.5 µg/mL) | 9 (≈ 6.2 µg/mL) | >50
CO[C@@H]1[C@@H](OC(N)=O)[C@@H](O)[C@H](Oc2ccc3c(O)c(NC(=O)c4cccc(-c5ccccc5C(F)(F)F)c4)c(=O)oc3c2C)OC1(C)C [Compound 60] | – | – | – | – | – | – | – | – | >100 | 5 (≈ 3.36 µg/mL) | >200 | >100 | >200 | >300 | 9 (≈ 6.05 µg/mL) | >50
CO[C@@H]1[C@@H](OC(N)=O)[C@@H](O)[C@H](Oc2ccc3c(O)c(NC(=O)c4cccc(-c5cccc(C(C)C)c5)c4)c(=O)oc3c2C)OC1(C)C [Compound 61] | – | – | – | – | – | – | – | – | >100 | 0.19 (≈ 0.123 µg/mL) | 59 (≈ 38.2 µg/mL) | >100 | 77 (≈ 49.8 µg/mL) | 59 (≈ 38.2 µg/mL) | 0.39 (≈ 0.252 µg/mL) | 10 (≈ 6.47 µg/mL)
CO[C@@H]1[C@@H](OC(N)=O)[C@@H](O)[C@H](Oc2ccc3c(O)c(NC(=O)c4cccc(C5CCCCC5)c4)c(=O)oc3c2C)OC1(C)C [Compound 62] | – | – | – | – | – | – | – | – | >100 | 3 (≈ 1.83 µg/mL) | 59 (≈ 36 µg/mL) | 82 (≈ 50.1 µg/mL) | 82 (≈ 50.1 µg/mL) | 59 (≈ 36 µg/mL) | 5 (≈ 3.05 µg/mL) | >50
CO[C@@H]1[C@@H](OC(N)=O)[C@@H](O)[C@H](Oc2ccc3c(O)c(NC(=O)c4cccc(-c5ccccc5[N+](=O)[O-])c4)c(=O)oc3c2C)OC1(C)C [Compound 64] | – | – | – | – | – | – | – | – | >100 | 39 (≈ 25.3 µg/mL) | >200 | >100 | >200 | >300 | 77 (≈ 50 µg/mL) | >50
CO[C@@H]1[C@@H](OC(N)=O)[C@@H](O)[C@H](Oc2ccc3c(O)c(NC(=O)c4cccc(-c5ccccc5N)c4)c(=O)oc3c2C)OC1(C)C [Compound 65] | – | – | – | – | – | – | – | – | >100 | 40 (≈ 24.8 µg/mL) | 59 (≈ 36.6 µg/mL) | >100 | >200 | 59 (≈ 36.6 µg/mL) | 81 (≈ 50.2 µg/mL) | >50
CO[C@@H]1[C@@H](OC(N)=O)[C@@H](O)[C@H](Oc2ccc3c(O)c(NC(=O)c4cc(-c5ccccc5)c(OCc5ccccc5)cc4OCc4ccccc4)c(=O)oc3c2C)OC1(C)C [Compound 66] | – | – | – | – | – | – | – | – | >100 | >100 | >200 | >100 | >200 | >300 | >100 | >50
